Measured values published in patent US8383658B2, “Isoxazole based neuronal nicotinic receptor ligands and methods of use” (Abbott Laboratories, priority 2008, dated 2013).

Target: T1, human α4β2 (Homo sapiens, UniProt P17787+P43681)
T1 construct: expressed in transfected cells
Test: Calcium flux assay (FLIPR), potentiation of submaximal agonist response in HEK 293 cells expressing α4β2
Format: cell-based
Details: α4β2 PAM; fluorescence response to submaximal nicotine considered as 100%
From the text: One manner to characterize α4β2 PAM activity is by characterization in clonal cell lines (for example, human embryonic kidney 293 cells) expressing the human neuronal nicotinic acetylcholine receptor subtype α4β2, particularly by use of Fluorescent Image Plate Reader technology. Effects on calcium flux or membrane potential changes can be assessed. Such assays have been reported and further details for carrying out the assays can be obtained in International Publication No. WO 2006/114400. Another method to identify and characterize allosteric modulator activity is by expressing the α4β2 subunits in Xenopus oocytes, and by measuring electrophysiological effects on ligand-evoked current responses as previously described in Curtis, L., et al., Molecular Pharmacology, 61: 127-135, 2002.
To determine the effectiveness of representative compounds of this invention as ligands for α4β2 PAM activity, the compounds of the invention can be evaluated according to the Calcium Flux Assay described below.
Human embryonic kidney (HEK) 293 cells stably expressing human α4β2 or α3β4 combinations are grown to confluency in 162 cm^2 tissue culture flasks in DMEM media supplemented with 10% FBS and 25 μg/ml zeocin and 200 μg/ml hygromycin B. Cells expressing rat or ferret subunits may also be used. For assessing α3* or α7* selectivity, IMR-32 cells may also be used. IMR-32 neuroblastoma cells (ATCC) are grown to confluency in 162 cm^2 tissue culture flasks in minimum essential media supplemented with 10% FBS and 1 mM sodium pyruvate, 1% non-essential amino acids and 1% antibiotic-antimycotic. For the calcium flux assay, c cells are then dissociated using cell dissociation buffer and 100-150 μl per well of 3.5×10^5 cells/ml cell suspension (˜50,000-100,000 cells/well) was plated into 96-well black plates (poly-D-lysine precoated) with clear bottom and maintained for 24-48 hours in a tissue culture incubator at 37° C. under an atmosphere of 5% CO2: 95% air. Other clonal cell lines or primary cell cultures that express endogenous α4* nicotinic receptors may also be used in this assay. Calcium flux was measured using calcium-3 assay kit (Molecular Devices, Sunnyvale, Calif.) or fluo-4 (Invitrogen). A stock solution of the dye was prepared by dissolving each vial supplied by the vendor in Hank's balanced salt solution buffer (HBSS) or 150 mM NMDG, 20 mM CaCl2 containing 10 mM HEPES. The stock solution was diluted 1:20 using the same buffer before use. The growth media was removed from the cells. The cells were loaded with 100 μl of the dye per well and incubated at room temperature for up to one hour for HEK 293 clonal stable cell lines or 30 minutes-45 minutes at 37° C. for IMR-32 cells. Fluorescence measurements were read simultaneously from all the wells by a Fluorometic Imaging Plate Reader (FLIPR) at an excitation wavelength of 480 nm and an emission wavelength of 520 nm. Baseline fluorescence was measured for the first 6 seconds at which 3× concentrations of modulator/test compounds were added to the cell plate at 50 μl and incubated for five minutes. The fluorescence intensity was captured every second for the first 1 minute followed by every 5 seconds for an additional 4 minutes. This procedure was followed by 50 μl of 4× concentration of agonist and readings were taken for a period of 3-5 minutes as described above.
The ability of test compounds to positively modulate the response (i.e., increase the response) induced by a submaximal concentration of agonist (EC20-30%) such as nicotine is measured. Potentiation is measured based on peak fluorescence responses by screening compounds at fixed concentrations or in a concentration-response manner to derive EC50 values. The concentration dependence of changes in fluorescence responses is fitted by nonlinear regression analysis (GraphPad Prism, San Diego, Calif.) to obtain EC50 values. The degree of potentiation and EC50 values of the test compounds are typically calculated. […]

T1 sequence (P43681 29-627 limits assumed): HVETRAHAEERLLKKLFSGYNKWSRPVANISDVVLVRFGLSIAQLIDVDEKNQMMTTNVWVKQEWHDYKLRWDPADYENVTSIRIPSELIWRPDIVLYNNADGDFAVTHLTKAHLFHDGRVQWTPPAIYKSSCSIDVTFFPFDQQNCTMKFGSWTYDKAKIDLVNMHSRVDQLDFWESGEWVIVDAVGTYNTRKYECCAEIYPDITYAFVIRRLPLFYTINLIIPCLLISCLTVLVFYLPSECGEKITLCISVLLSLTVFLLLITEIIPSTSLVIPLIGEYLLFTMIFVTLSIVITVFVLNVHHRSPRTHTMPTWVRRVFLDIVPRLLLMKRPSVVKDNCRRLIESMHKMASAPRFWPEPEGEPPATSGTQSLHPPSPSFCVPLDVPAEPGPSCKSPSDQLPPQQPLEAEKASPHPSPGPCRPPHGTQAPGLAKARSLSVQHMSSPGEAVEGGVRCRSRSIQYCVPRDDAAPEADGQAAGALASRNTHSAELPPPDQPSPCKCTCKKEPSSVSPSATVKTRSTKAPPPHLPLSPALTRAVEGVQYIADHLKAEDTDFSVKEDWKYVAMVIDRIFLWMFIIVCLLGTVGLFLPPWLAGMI
T1 sequence (P17787 26-502): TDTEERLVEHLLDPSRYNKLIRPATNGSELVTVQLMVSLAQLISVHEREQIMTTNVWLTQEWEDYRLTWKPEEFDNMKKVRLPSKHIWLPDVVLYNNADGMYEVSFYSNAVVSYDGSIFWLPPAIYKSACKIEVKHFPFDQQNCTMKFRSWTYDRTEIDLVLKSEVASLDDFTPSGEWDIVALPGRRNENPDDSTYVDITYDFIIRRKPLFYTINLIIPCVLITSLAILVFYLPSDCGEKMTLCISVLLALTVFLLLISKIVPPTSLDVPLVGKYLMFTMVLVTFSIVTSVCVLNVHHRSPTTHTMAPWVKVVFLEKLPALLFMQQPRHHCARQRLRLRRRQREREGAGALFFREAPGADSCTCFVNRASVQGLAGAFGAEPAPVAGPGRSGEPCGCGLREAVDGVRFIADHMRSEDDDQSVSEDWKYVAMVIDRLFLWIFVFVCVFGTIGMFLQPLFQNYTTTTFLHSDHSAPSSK

| SMILES | Activity (allosteric effects—potentiation of fluorescence responses) |
| --- | --- |
| c1cncc(-c2cc(-c3cccnc3)on2)c1 [Example 1, 3,5-Di(pyridin-3-yl)isoxazole] | a (“a” denotes as activity range from 200-400%) |
| Fc1ccc(-c2cc(-c3cccnc3)no2)cc1F [Example 16, 5-(3,4-Difluorophenyl)-3-(pyridin-3-yl)isoxazole] | b (“b” denotes an activity range from 150-200%) |
| Fc1cc(-c2cc(-c3cccnc3)no2)cc(F)c1F [Example 17, 5-(3,4,5-Trifluorophenyl)-3-(pyridin-3-yl)isoxazole] | a (“a” denotes as activity range from 200-400%) |
| CC(=O)c1cccc(-c2cc(-c3cccnc3)no2)c1 [Example 25, 1-(3-(3-(Pyridin-3-yl)isoxazol-5-yl)phenyl)ethanone] | b (“b” denotes an activity range from 150-200%) |
| N#Cc1cccc(-c2cc(-c3cncc(F)c3)no2)c1 [Example 29, 3-(3-(5-Fluoropyridin-3-yl)isoxazol-5-yl)benzonitrile] | b (“b” denotes an activity range from 150-200%) |
| N#Cc1cc(-c2cc(-c3cccnc3)no2)ccc1F [Example 68, 2-Fluoro-5-(3-(pyridin-3-yl)isoxazol-5-yl)benzonitrile] | a (“a” denotes as activity range from 200-400%) |
